In PubChem BioAssay (NCI):
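Compound exposure: 48 hours, 5 concentrations, 96-well plates. TGI: total growth inhibition.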

How the values were obtained:
Assay in all cases: NCI-60 cell line screen, 48 h
[1] = test system: MALME-3M melanoma
[2] = test system: A549 NSCLC
[3] = test system: IGROV1 ovarian
[4] = test system: UO-31 renal
[5] = test system: OVCAR-3 ovarian
[6] = test system: LOX IMVI melanoma
[7] = test system: NCI-H522 lung
[8] = test system: OVCAR-8 ovarian
[9] = test system: ACHN renal
[10] = test system: HCT-15 colon
[11] = test system: HCT-116 colon
[12] = test system: RPMI-8226 leukemia
[13] = test system: NCI/ADR-RES ovarian
[14] = test system: COLO 205 colon
[15] = test system: SF-295 CNS
[16] = test system: SK-OV-3 ovarian
[17] = test system: HCC-2998 colon
[18] = test system: M14 melanoma
[19] = test system: SK-MEL-5 melanoma
[20] = test system: KM12 colon

Question: For `c1ccc(N2N=C3N(c4ccccc4)C2N3c2ccccc2)cc1`, which TGI [1] is on record?
Answer: 38.2 µM

Question: And the TGI [2]?
Answer: > 100 µM

Question: What about the TGI [3] of the same compound?
Answer: > 100 µM

Question: What about the TGI [4] of the same compound?
Answer: > 100 µM

Question: And the TGI [5]?
Answer: > 100 µM

Question: And the TGI [6]?
Answer: 62.4 µM

Question: And the TGI [7]?
Answer: 56.1 µM

Question: What about the TGI [8] of the same compound?
Answer: > 100 µM

Question: And the TGI [9]?
Answer: > 100 µM

Question: What about the TGI [10] of the same compound?
Answer: > 100 µM

Question: And the TGI [11]?
Answer: > 100 µM

Question: And the TGI [12]?
Answer: 48.7 µM

Question: What about the TGI [13] of the same compound?
Answer: > 100 µM

Question: And the TGI [14]?
Answer: 49.1 µM

Question: And the TGI [15]?
Answer: > 100 µM

Question: What about the TGI [16] of the same compound?
Answer: > 100 µM

Question: What about the TGI [17] of the same compound?
Answer: 77.5 µM

Question: And the TGI [18]?
Answer: 47.6 µM

Question: And the TGI [19]?
Answer: 63.4 µM

Question: And the TGI [20]?
Answer: > 100 µM

Question: Which TGI [1] does the source give for `CCCCn1c(C)c2c(c1C)C(=O)N(CCN1CCN(c3ccccc3Cl)CC1)C2=O` here?
Answer: 50.2 µM

Question: What about the TGI [2] of the same compound?
Answer: > 100 µM

Question: What about the TGI [3] of the same compound?
Answer: > 100 µM

Question: What about the TGI [4] of the same compound?
Answer: 43.3 µM

Question: What about the TGI [5] of the same compound?
Answer: > 100 µM

Question: And the TGI [6]?
Answer: 30.1 µM

Question: What about the TGI [7] of the same compound?
Answer: 78.7 µM

Question: What about the TGI [8] of the same compound?
Answer: > 100 µM

Question: And the TGI [9]?
Answer: > 100 µM

Question: And the TGI [10]?
Answer: > 100 µM

Question: What about the TGI [11] of the same compound?
Answer: 34.3 µM

Question: And the TGI [12]?
Answer: 55.1 µM

Question: What about the TGI [13] of the same compound?
Answer: > 100 µM

Question: What about the TGI [14] of the same compound?
Answer: > 100 µM

Question: What about the TGI [15] of the same compound?
Answer: > 100 µM

Question: What about the TGI [16] of the same compound?
Answer: > 100 µM

Question: And the TGI [17]?
Answer: 72.5 µM

Question: And the TGI [18]?
Answer: 51.5 µM

Question: What about the TGI [19] of the same compound?
Answer: 34.9 µM

Question: And the TGI [20]?
Answer: > 100 µM

Question: For `CC(=O)OCc1nnn2c1CCC2`, which TGI [1] is on record?
Answer: > 100 µM

Question: And the TGI [2]?
Answer: > 100 µM

Question: What about the TGI [3] of the same compound?
Answer: > 100 µM

Question: What about the TGI [4] of the same compound?
Answer: > 100 µM

Question: What about the TGI [5] of the same compound?
Answer: > 100 µM

Question: What about the TGI [6] of the same compound?
Answer: > 100 µM

Question: What about the TGI [7] of the same compound?
Answer: > 100 µM

Question: And the TGI [8]?
Answer: > 100 µM

Question: And the TGI [9]?
Answer: > 100 µM

Question: What about the TGI [10] of the same compound?
Answer: > 100 µM

Question: And the TGI [11]?
Answer: > 100 µM

Question: What about the TGI [15] of the same compound?
Answer: > 100 µM

Question: And the TGI [16]?
Answer: > 100 µM

Question: And the TGI [17]?
Answer: > 100 µM

Question: And the TGI [18]?
Answer: > 100 µM

Question: What about the TGI [19] of the same compound?
Answer: > 100 µM

Question: And the TGI [20]?
Answer: > 100 µM
